Laboratory results published in PMC5041982, “Small-molecule inhibition of STAT3 in radioresistant head and neck squamous cell carcinoma” (Oncotarget, 2016).
Read-outs that look alike come from different tables or passages of the source.

Columns and labels:
STAT3/1 regulated genes = assay: RNA-seq of UM-SCC-17B tumor xenografts; format: in vivo; settings: UM-SCC-17B xenografts, nude mice
[1] = Plasma PK in mice, IP and oral; format: in vivo, C57BL/6 mice; settings: C57BL/6, mouse
[2] = system: normal murine bone marrow colony formation; assay: Normal murine bone marrow colony formation; format: cell-based; settings: studies not shown (Tweardy et al 2010, unpublished)
pSTAT1 [3] = molecular target: T1, pSTAT1 (Homo sapiens, UniProt P42224); assay: Constitutive pSTAT1 in HNSCC cell lines (Luminex); format: cell-based; set-up: endogenous in cells; host or cells: UM-SCC-17B, SCC-61, HN30, SCC-35
T1 sequence (P42224 1-750): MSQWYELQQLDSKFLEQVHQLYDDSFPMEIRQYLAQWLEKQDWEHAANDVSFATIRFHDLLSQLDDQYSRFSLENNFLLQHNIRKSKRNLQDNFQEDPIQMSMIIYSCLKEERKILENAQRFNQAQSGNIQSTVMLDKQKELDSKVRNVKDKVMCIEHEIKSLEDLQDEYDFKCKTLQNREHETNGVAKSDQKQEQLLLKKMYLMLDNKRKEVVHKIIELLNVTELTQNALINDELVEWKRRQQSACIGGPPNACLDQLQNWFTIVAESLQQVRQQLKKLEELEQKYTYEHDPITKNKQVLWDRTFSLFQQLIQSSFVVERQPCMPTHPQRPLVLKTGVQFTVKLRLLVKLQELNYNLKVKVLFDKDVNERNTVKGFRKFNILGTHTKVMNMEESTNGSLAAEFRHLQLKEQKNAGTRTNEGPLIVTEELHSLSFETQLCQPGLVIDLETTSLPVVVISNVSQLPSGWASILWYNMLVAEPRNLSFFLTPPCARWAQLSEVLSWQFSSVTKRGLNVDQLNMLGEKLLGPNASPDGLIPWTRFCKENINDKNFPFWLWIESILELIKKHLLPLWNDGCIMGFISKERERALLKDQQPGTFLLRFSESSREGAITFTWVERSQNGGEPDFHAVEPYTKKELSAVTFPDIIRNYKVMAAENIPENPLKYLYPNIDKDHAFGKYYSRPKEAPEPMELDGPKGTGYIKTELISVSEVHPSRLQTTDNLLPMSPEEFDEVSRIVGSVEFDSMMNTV

pSTAT1 [4] = molecular target: T1, pSTAT1; assay: pSTAT1 levels in UM-SCC-17B tumor xenografts (immunoblot); format: in vivo, nude mice; set-up: from tissue; host or cells: UM-SCC-17B tumour xenografts from nude mice; settings: UM-SCC-17B xenografts, p = 0.000003

COc1ccc(S(=O)(=O)Nc2cc(-c3c(O)ccc4ccccc34)c(O)c3ccccc23)cc1 [Compound C188-9]
Fold Change, ADM (STAT3/1 regulated genes): 1.8 | Fold Change, AKAP12 (STAT3/1 regulated genes): 2.9 | Fold Change, ALDH3A1 (STAT3/1 regulated genes): 2.6 | Fold Change, ANPEP (STAT3/1 regulated genes): 3.7 | Fold Change, ATF3 (STAT3/1 regulated genes): 1.9 | Fold Change, BATF2 (STAT3/1 regulated genes): −2.1 | Fold Change, CALML3 (STAT3/1 regulated genes): −1.7 | Fold Change, CCL2 (STAT3/1 regulated genes): 5.1 | Fold Change, CCL20 (STAT3/1 regulated genes): 2.1 | Fold Change, CCNA1 (STAT3/1 regulated genes): −2.3 | Fold Change, CCND3 (STAT3/1 regulated genes): −1.6 | Fold Change, CLU (STAT3/1 regulated genes): −1.7 | Fold Change, CMPK2 (STAT3/1 regulated genes): −2.1 | Fold Change, COL5A1 (STAT3/1 regulated genes): 1.7 | Fold Change, COL16A1 (STAT3/1 regulated genes): 1.8 | Fold Change, CXCL2 (STAT3/1 regulated genes): 2.9 | Fold Change, CXCL3 (STAT3/1 regulated genes): 2.6 | Fold Change, CYP1B1 (STAT3/1 regulated genes): 2.0 | Fold Change, DDX58 (STAT3/1 regulated genes): −1.7 | Fold Change, DYNC1H1 (STAT3/1 regulated genes): 1.5 | Fold Change, EGR1 (STAT3/1 regulated genes): 2.0 | Fold Change, EPSTI1 (STAT3/1 regulated genes): −2.2 | Fold Change, EREG (STAT3/1 regulated genes): 1.8 | Fold Change, FOS (STAT3/1 regulated genes): 2.0 | Fold Change, FOSB (STAT3/1 regulated genes): 1.9 | Fold Change, GBP1 (STAT3/1 regulated genes): −1.7 | Fold Change, HERC5 (STAT3/1 regulated genes): −1.7 | Fold Change, HERC6 (STAT3/1 regulated genes): −1.6 | Fold Change, HK2 (STAT3/1 regulated genes): 1.6 | Fold Change, HSPG2 (STAT3/1 regulated genes): 1.5 | Fold Change, IER3 (STAT3/1 regulated genes): 2.0 | Fold Change, IFI6 (STAT3/1 regulated genes): −2.1 | Fold Change, IFI27 (STAT3/1 regulated genes): −1.7 | Fold Change, IFI35 (STAT3/1 regulated genes): −1.9 | Fold Change, IFI44 (STAT3/1 regulated genes): −1.7 | Fold Change, IFI44L (STAT3/1 regulated genes): −2.3 | Fold Change, IFIT1 (STAT3/1 regulated genes): −2.5 | Fold Change, IFIT2 (STAT3/1 regulated genes): −2.2 | Fold Change, IFIT3 (STAT3/1 regulated genes): −2.5 | Fold Change, IFIT5 (STAT3/1 regulated genes): −1.6 | Fold Change, IFITM1 (STAT3/1 regulated genes): −1.5 | Fold Change, IFITM3 (STAT3/1 regulated genes): −1.5 | Fold Change, IGFBP3 (STAT3/1 regulated genes): 3.3 | Fold Change, IRF7 (STAT3/1 regulated genes): −1.7 | Fold Change, ISG15 (STAT3/1 regulated genes): −2.3 | Fold Change, KRT15 (STAT3/1 regulated genes): −2.1 | Fold Change, LY6E (STAT3/1 regulated genes): −1.5 | Fold Change, MMP10 (STAT3/1 regulated genes): −1.7 | Fold Change, MX1 (STAT3/1 regulated genes): −1.9 | Fold Change, MX2 (STAT3/1 regulated genes): −1.8 | Fold Change, NAV1 (STAT3/1 regulated genes): 1.6 | Fold Change, NEDD9 (STAT3/1 regulated genes): 1.9 | Fold Change, NNMT (STAT3/1 regulated genes): −2.3 | Fold Change, NOTCH4 (STAT3/1 regulated genes): 1.8 | Fold Change, NPTX2 (STAT3/1 regulated genes): 6.5 | Fold Change, NR4A2 (STAT3/1 regulated genes): 1.8 | Fold Change, NRP2 (STAT3/1 regulated genes): 1.9 | Fold Change, OAS1 (STAT3/1 regulated genes): −2.1 | Fold Change, OAS2 (STAT3/1 regulated genes): −1.8 | Fold Change, OASL (STAT3/1 regulated genes): −2.6 | Fold Change, PCDH17 (STAT3/1 regulated genes): −3.7 | Fold Change, PDK1 (STAT3/1 regulated genes): 1.7 | Fold Change, PHLDA1 (STAT3/1 regulated genes): 1.8 | Fold Change, PLSCR1 (STAT3/1 regulated genes): −1.8 | Fold Change, PSMB9 (STAT3/1 regulated genes): −1.6 | Fold Change, PTGS2 (STAT3/1 regulated genes): 4.4 | Fold Change, SAMD9 (STAT3/1 regulated genes): −1.7 | Fold Change, SCARA3 (STAT3/1 regulated genes): −1.8 | Fold Change, SERPINB3 (STAT3/1 regulated genes): −1.6 | Fold Change, SERTAD2 (STAT3/1 regulated genes): 1.6 | Fold Change, SFRP1 (STAT3/1 regulated genes): −2.6 | Fold Change, SLC2A1 (STAT3/1 regulated genes): 1.7 | Fold Change, SLC2A3 (STAT3/1 regulated genes): 5.9 | Fold Change, SLC4A7 (STAT3/1 regulated genes): 1.8 | Fold Change, SLC7A11 (STAT3/1 regulated genes): 1.6 | Fold Change, SLPI (STAT3/1 regulated genes): −1.6 | Fold Change, SMAD9 (STAT3/1 regulated genes): 2.7 | Fold Change, SP110 (STAT3/1 regulated genes): −1.6 | Fold Change, SPOCK3 (STAT3/1 regulated genes): −5.1 | Fold Change, STC1 (STAT3/1 regulated genes): 1.8 | Fold Change, TGFBR3 (STAT3/1 regulated genes): 1.5 | Fold Change, THBS1 (STAT3/1 regulated genes): 2.2 | Fold Change, TNC (STAT3/1 regulated genes): 2.9 | Fold Change, TRIM22 (STAT3/1 regulated genes): −1.7 | Fold Change, TYMP (STAT3/1 regulated genes): −1.7 | Fold Change, UBE2L6 (STAT3/1 regulated genes): −1.5 | Fold Change, UPK1B (STAT3/1 regulated genes): −1.9 | Fold Change, USP18 (STAT3/1 regulated genes): −1.9 | Fold Change, VEGFA (STAT3/1 regulated genes): 2.0 | Fold Change, VLDLR (STAT3/1 regulated genes): 1.7 | AUC ([1]; 10 mg/Kg IP, read-out: Area under the curve (AUC), IP): 12500 ng·h/mL | AUC ([1]; 10 mg/Kg oral, read-out: Area under the curve (AUC), oral): 12500 ng·h/mL | Inhibition of normal murine bone marrow colony formation [2]: did not | IC50 (pSTAT1 [3]; HN30, 36 hrs): 5 ± 6 µM | IC50 (pSTAT1 [3]; SCC-61, 36 hrs): 28.5 ± 0.9 µM | IC50 (pSTAT1 [3]; UM-SCC-17B): 19.1 ± 15.5 µM | Reduction of pSTAT1 levels in tumor xenografts vs vehicle control (pSTAT1 [4]): 80%
